Measurements: patent publication US9932338B2, “Compounds having muscarinic receptor antagonist and BETA2 adrenergic receptor agonist activity” (CHIESI FARMACEUTICI S.P.A., priority 2015, dated 2018)
Read-outs that look alike come from different tables or passages of the source.

Assays:
Human M3 receptor = target: T1, Human M3 receptor (Homo sapiens, UniProt P20309); assay: M3 receptor radioligand binding assay; settings: human M3 receptor membranes, [N-methyl-3H] scopolamine methyl chloride, Ki from IC50 by Cheng and Prusoff
T1 construct: purchased Perkin Elmer
Procedure: Example. M3 Receptor Radioligand Binding Assay
The assay was carried out in 96-well polypropylene plates in a volume of 250 ul. […] The final assay concentration of DMSO was 0.5% (v/v). The plates were sealed and incubated for 2 hours at room temperature on an orbital shaker (slow speed). Membranes were harvested onto 96-well unifilter GF/C filter plates pre-treated with 0.5% polyethyleneimine (v/v), using a filter manifold, washed four times with 200 μl of assay buffer. The plates were dried before addition of 50 μl of microscint-0, sealed then read in a Trilux Microbeta scintillation counter. IC50 values are determined from competition curves using a non-linear curve fitting program. Ki values were calculated from IC50 values by the Cheng and Prusoff equation.

Human β2 adrenoceptor = target: T2, Human β2 adrenoceptor (Homo sapiens, UniProt P07550); assay: β2 adrenoceptor radioligand binding assay; settings: human β2 adrenoceptor membranes, 125-I cyanopindolol, Ki from IC50 by Cheng and Prusoff
T2 construct: purchased Perkin Elmer
Procedure: Example. β2 Adrenoceptor Radioligand Binding Assay
Human β2 adrenoceptor membranes (7.5 ug/well) from Perkin Elmer were incubated with 0.3 nM 125-I Cyanopindolol with or without test compounds, or a saturating concentration of s-propranolol (2 μM) for the determination of non-specific binding. The assay was carried out in 96-well polypropylene plates in a volume of 200 ul. The assay buffer used was 25 mM HEPES, 0.5% BSA (w/v), 1 mM EDTA, 0.02% ascorbic acid (v/v), (pH 7.4). The final assay concentration of DMSO was 0.5% (v/v). The plates were sealed and incubated for 1 hour at room temperature on an orbital shaker (slow speed). Membranes were harvested onto 96-well unifilter GF/C filter plates pre-treated with 0.5% polyethyleneimine (v/v), using a filter manifold, washed six times with 200 μl of wash buffer containing 10 mM HEPES and 500 mM NaCl. The plates were dried before addition of 50 μl of microscint-0, sealed then read in a Trilux Microbeta scintillation counter. IC50 values are determined from competition curves using a non-linear curve fitting program. Ki values were calculated from IC50 values by the Cheng and Prusoff equation.

[1] = read-out: M3 binding affinity (Ki class)
[2] = read-out: B2 binding affinity (Ki class)

T2 sequence (P07550 whole entry): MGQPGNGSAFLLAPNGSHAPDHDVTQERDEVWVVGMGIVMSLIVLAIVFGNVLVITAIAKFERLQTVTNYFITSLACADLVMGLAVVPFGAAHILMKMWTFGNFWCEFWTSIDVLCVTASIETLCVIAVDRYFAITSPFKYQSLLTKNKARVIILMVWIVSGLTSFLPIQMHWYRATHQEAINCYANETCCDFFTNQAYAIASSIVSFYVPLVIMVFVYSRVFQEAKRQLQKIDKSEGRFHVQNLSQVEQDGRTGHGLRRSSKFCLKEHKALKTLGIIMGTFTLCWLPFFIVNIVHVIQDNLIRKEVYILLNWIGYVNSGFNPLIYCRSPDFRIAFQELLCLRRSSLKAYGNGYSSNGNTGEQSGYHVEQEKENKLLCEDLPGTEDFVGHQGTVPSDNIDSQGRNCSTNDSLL
T1 sequence (P20309 whole entry): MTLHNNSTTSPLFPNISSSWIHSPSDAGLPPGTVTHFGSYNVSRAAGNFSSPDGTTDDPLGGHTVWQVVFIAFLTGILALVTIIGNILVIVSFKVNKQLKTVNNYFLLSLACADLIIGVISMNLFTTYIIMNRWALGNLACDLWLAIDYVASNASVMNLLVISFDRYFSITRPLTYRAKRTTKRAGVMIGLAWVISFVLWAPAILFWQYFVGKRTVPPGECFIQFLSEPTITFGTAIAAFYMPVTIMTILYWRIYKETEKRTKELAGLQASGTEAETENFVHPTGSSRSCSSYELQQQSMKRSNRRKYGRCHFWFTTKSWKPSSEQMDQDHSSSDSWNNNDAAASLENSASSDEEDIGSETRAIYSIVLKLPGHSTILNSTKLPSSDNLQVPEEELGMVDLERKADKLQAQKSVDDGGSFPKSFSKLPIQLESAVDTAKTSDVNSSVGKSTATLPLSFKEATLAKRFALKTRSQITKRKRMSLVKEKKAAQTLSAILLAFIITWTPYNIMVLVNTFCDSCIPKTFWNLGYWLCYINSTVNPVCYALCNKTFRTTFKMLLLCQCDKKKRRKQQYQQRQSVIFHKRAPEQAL

Ki (Human M3 receptor; [1])	Ki (Human β2 adrenoceptor; [2])	Compound	Ki (Human M3 receptor; M3 binding affinity (Ki class))	Ki (Human β2 adrenoceptor; B2 binding affinity (Ki class))
–	–	O=C(NC1(C(=O)O[C@H]2CN3CCC2CC3)CCc2ccccc21)c1cccc(OCCCCCNC[C@H](O)c2ccc(O)c3[nH]c(=O)ccc23)c1 (stereo partly drawn) [Compound 2, (R)-quinuclidin-3-yl 1-(3-((5-(((R)-2-hydroxy-2-(8-hydroxy-2-oxo-1,2-dihydroquinolin-5-yl)ethyl)amino)pentyl)oxy)benzamido)-2,3-dihydro-1H-indene-1-carboxylate]	< 1 nM	< 1 nM
< 1 nM	> 10 nM	O=C(NCCCCNC[C@H](O)c1ccc(O)c2[nH]c(=O)ccc12)c1ccc(CNC2(C(=O)OC3CCN(Cc4ccccc4)CC3)CCc3ccccc32)s1 (single isomer, unassigned; stereoisomer 1) [Compound 24]	–	–
< 1 nM	1 to 10 nM	O=C(NCCCCNC[C@H](O)c1ccc(O)c2[nH]c(=O)ccc12)c1ccc(CNC2(C(=O)OCC3CCN(Cc4ccccc4)CC3)CCc3ccccc32)s1 (stereo partly drawn) [Compound 16, (1-benzylpiperidin-4-yl)methyl 1-(((5-((4-(((R)-2-hydroxy-2-(8-hydroxy-2-oxo-1,2-dihydroquinolin-5-yl)ethyl)amino)butyl)carbamoyl)thiophen-2-yl)methyl)amino)-2,3-dihydro-1H-indene-1-carboxylate]	–	–
< 1 nM	> 10 nM	O=C(NCCCCNC[C@H](O)c1ccc(O)c2[nH]c(=O)ccc12)c1ccc(CNC2(C(=O)O[C@@H]3CCCN(Cc4ccccc4)C3)CCc3ccccc32)s1 (single isomer, unassigned; stereoisomer 1) [Compound 25]	–	–
< 1 nM	> 10 nM	O=C(NCCCCNC[C@H](O)c1ccc(O)c2[nH]c(=O)ccc12)c1ccc(CNC2(C(=O)OCC3CCN(Cc4cccs4)CC3)CCc3ccccc32)s1 (stereo partly drawn) [Compound 17, (1-(thiophen-2-ylmethyl)piperidin-4-yl)methyl 1-(((5-((4-(((R)-2-hydroxy-2-(8-hydroxy-2-oxo-1,2-dihydroquinolin-5-yl)ethyl)amino)butyl)carbamoyl)thiophen-2-yl)methyl)amino)-2,3-dihydro-1H-indene-1-carboxylate]	–	–
< 1 nM	1 to 10 nM	O=C(NCCCCNC[C@H](O)c1ccc(O)c2[nH]c(=O)ccc12)c1ccc(CNC2(C(=O)O[C@@H]3CCN(Cc4ccccc4)C3)CCc3ccccc32)s1 (single isomer, unassigned; stereoisomer 2) [Compound 28]	–	–
< 1 nM	> 10 nM	O=C(NCCCCNC[C@H](O)c1ccc(O)c2[nH]c(=O)ccc12)c1ccc(CNC2(C(=O)OC3CCN(Cc4ccccc4)CC3)CCc3ccccc32)s1 (single isomer, unassigned; stereoisomer 2) [Compound 27]	–	–
< 1 nM	> 10 nM	O=C(NC1(C(=O)OCC2CCN(Cc3ccccc3)CC2)CCc2ccccc21)c1cccc(OCCCCCCNC[C@H](O)c2ccc(O)c3[nH]c(=O)ccc23)c1 (stereo partly drawn) [Compound 9, (1-benzylpiperidin-4-yl)methyl 1-(3-((6-(((R)-2-hydroxy-2-(8-hydroxy-2-oxo-1,2-dihydroquinolin-5-yl)ethyl)amino)hexyl)oxy)benzamido)-2,3-dihydro-1H-indene-1-carboxylate]	–	–
< 1 nM	> 10 nM	CC(C)N1CCC(COC(=O)C2(NC(=O)c3cccc(OCCCCCCNC[C@H](O)c4ccc(O)c5[nH]c(=O)ccc45)c3)CCc3ccccc32)CC1 (stereo partly drawn) [Compound 7, (1-isopropylpiperidin-4-yl)methyl 1-(3-((6-(((R)-2-hydroxy-2-(8-hydroxy-2-oxo-1,2-dihydroquinolin-5-yl)ethyl)amino)hexyl)oxy)benzamido)-2,3-dihydro-1H-indene-1-carboxylate]	–	–
< 1 nM	1 to 10 nM	O=C(NCCCCNC[C@H](O)c1ccc(O)c2[nH]c(=O)ccc12)c1ccc(CNC2(C(=O)OCC3CCN(Cc4cccc(O)c4)CC3)CCc3ccccc32)s1 (stereo partly drawn) [Compound 15, (1-(3-hydroxybenzyl)piperidin-4-yl)methyl 1-(((5-((4-(((R)-2-hydroxy-2-(8-hydroxy-2-oxo-1,2-dihydroquinolin-5-yl)ethyl)amino)butyl)carbamoyl)thiophen-2-yl)methyl)amino)-2,3-dihydro-1H-indene-1-carboxylate]	–	–
1 to 10 nM	> 10 nM	O=C(NC1(C(=O)OCC2CCN(Cc3cccc(O)c3)CC2)CCc2ccccc21)c1cccc(OCCCCCCNC[C@H](O)c2ccc(O)c3[nH]c(=O)ccc23)c1 (stereo partly drawn) [Compound 11, (1-(3-hydroxybenzyl)piperidin-4-yl)methyl 1-(3-((6-(((R)-2-hydroxy-2-(8-hydroxy-2-oxo-1,2-dihydroquinolin-5-yl)ethyl)amino)hexyl)oxy)benzamido)-2,3-dihydro-1H-indene-1-carboxylate]	–	–
1 to 10 nM	> 10 nM	O=C(NC1(C(=O)OCC2CCN(Cc3ccco3)CC2)CCc2ccccc21)c1cccc(OCCCCCCNC[C@H](O)c2ccc(O)c3[nH]c(=O)ccc23)c1 (stereo partly drawn) [Compound 10, (1-(furan-2-ylmethyl)piperidin-4-yl)methyl 1-(3-((6-(((R)-2-hydroxy-2-(8-hydroxy-2-oxo-1,2-dihydroquinolin-5-yl)ethyl)amino)hexyl)oxy)benzamido)-2,3-dihydro-1H-indene-1-carboxylate]	–	–

Compound	Ki (Human M3 receptor; [1])	Ki (Human β2 adrenoceptor; [2])	Ki (Human M3 receptor; M3 binding affinity (Ki class))	Ki (Human β2 adrenoceptor; B2 binding affinity (Ki class))
O=C(NC1(C(=O)O[C@H]2CN3CCC2CC3)Cc2ccccc2C1)c1cccc(OCCCCCNC[C@H](O)c2ccc(O)c3[nH]c(=O)ccc23)c1 [Compound 13, (R)-quinuclidin-3-yl 2-(3-((5-(((R)-2-hydroxy-2-(8-hydroxy-2-oxo-1,2-dihydroquinolin-5-yl)ethyl)amino)pentyl)oxy)benzamido)-2,3-dihydro-1H-indene-2-carboxylate]	< 1 nM	1 to 10 nM	–	–
Cc1cccc2c1CCC2(NC(=O)c1cccc(OCCCCCNC[C@H](O)c2ccc(O)c3[nH]c(=O)ccc23)c1)C(=O)O[C@H]1CN2CCC1CC2 (single isomer, unassigned; diastereoisomer 2) [Compound 5B]	< 1 nM	< 1 nM	–	–
O=C(NC1(C(=O)O[C@H]2CN3CCC2CC3)CCc2ccccc21)c1cccc(OCCCCNC[C@H](O)c2ccc(O)c3[nH]c(=O)ccc23)c1 (stereo partly drawn) [Compound 6, (R)-quinuclidin-3-yl 1-(3-(4-(((R)-2-hydroxy-2-(8-hydroxy-2-oxo-1,2-dihydroquinolin-5-yl)ethyl)amino)butoxy)benzamido)-2,3-dihydro-1H-indene-1-carboxylate]	< 1 nM	1 to 10 nM	–	–
Cc1cccc2c1CCC2(NC(=O)c1cccc(OCCCCCNC[C@H](O)c2ccc(O)c3[nH]c(=O)ccc23)c1)C(=O)O[C@H]1CN2CCC1CC2 (single isomer, unassigned; diastereoisomer 1) [Compound 5A]	1 to 10 nM	1 to 10 nM	–	–
O=C(NCCCCNC[C@H](O)c1ccc(O)c2[nH]c(=O)ccc12)c1cccc(C(=O)NC2(C(=O)O[C@H]3CN4CCC3CC4)CCc3ccccc32)c1 (stereo partly drawn) [Compound 8, (R)-quinuclidin-3-yl 1-(3-((4-(((R)-2-hydroxy-2-(8-hydroxy-2-oxo-1,2-dihydroquinolin-5-yl)ethyl)amino)butyl)carbamoyl)benzamido)-2,3-dihydro-1H-indene-1-carboxylate]	1 to 10 nM	> 10 nM	–	–
Cc1cccc2c1CCC2(NCc1cccc(C(=O)NCCCCNC[C@H](O)c2ccc(O)c3[nH]c(=O)ccc23)c1)C(=O)O[C@H]1CN2CCC1CC2 (stereo partly drawn) [Compound 5, (R)-quinuclidin-3-yl 1-((3-((4-(((R)-2-hydroxy-2-(8-hydroxy-2-oxo-1,2-dihydroquinolin-5-yl)ethyl)amino)butyl)carbamoyl)benzyl)amino)-4-methyl-2,3-dihydro-1H-indene-1-carboxylate]	< 1 nM	< 1 nM	–	–
O=C(O[C@H]1CN2CCC1CC2)C1(NCc2cccc(OCc3cccc(OCCCCNC[C@H](O)c4ccc(O)c5[nH]c(=O)ccc45)c3)c2)CCc2ccccc21 (stereo partly drawn) [Compound 21, (R)-quinuclidin-3-yl 1-((3-((3-(4-(((R)-2-hydroxy-2-(8-hydroxy-2-oxo-1,2-dihydroquinolin-5-yl)ethyl)amino)butoxy)benzyl)oxy)benzyl)amino)-2,3-dihydro-1H-indene-1-carboxylate]	< 1 nM	< 1 nM	–	–
O=C(NC1(C(=O)O[C@H]2CN3CCC2CC3)CCc2ccccc21)c1cccc(COCCCCNC[C@H](O)c2ccc(O)c3[nH]c(=O)ccc23)c1 (stereo partly drawn) [Compound 12, (R)-quinuclidin-3-yl 1-(3-((4-(((R)-2-hydroxy-2-(8-hydroxy-2-oxo-1,2-dihydroquinolin-5-yl)ethyl)amino)butoxy)methyl)benzamido)-2,3-dihydro-1H-indene-1-carboxylate]	1 to 10 nM	> 10 nM	–	–
